Test results as given in patent US8278090B1, “Heterotrophic cultivation of hydrocarbon-producing microalgae” (Solazyme, Inc., priority 2008, dated 2012).
Several values for one entry are separate records, joined by “and”; a condition that tells them apart may be missing. Identical values can stand only once.

Experiments:
Type in all cases: cell-based
[1] = test system: Botryococcus braunii (strain UTEX 572); experiment: Media component screening in heterotrophic culture; conditions: UTEX 572, 0.2% component + 3% glucose, 6-well plates, dark, room temperature, 16 days
Method: Media components incorporated in soil bacteria media were tested in heterotrophic culture of Botryococcus braunii (strain UTEX 572). For each component tested, 5 ml of B11 media (as described in Example 2 above) supplemented with 3% glucose (Fisher) were prepared in 6-well plates. Additionally, the media was supplemented with 0.2% of one of the following soil bacteria media components: dextrin (MP Biomedicals), malt extract (MP Biomedicals), traders yeast (Pharmamedia), corn meal, corn steep powder (Marcor), whole dead yeast (Engevita), casein type M (Marcor), casein type B (Marcor), tomato paste, molasses, soy hydrolysate (MP Biomedicals), soy flour (Arrowhead Mills), corn starch (Sigma), and maltose (Fisher). Wells were inoculated and cultures were grown at room temperature in the dark for 16 days. […] All media were filter sterilized.
The cells from each condition were transferred into 150 mL T150 flasks containing 50 mL B11 media with 3% glucose and 0.2% of their respective supplemental component. Cultures were grown in the dark for one week at 28° C. Cells were pelleted and fresh media (100 mL) were added to the cultures. The cultures were allowed to grow for another two weeks in the dark at 28° C. and then were collected and dry cell weights were measured. For most conditions, the addition of a 0.2% supplemental component increased cell growth as compared to glucose control. […]

[2] = test system: Botryococcus braunii UTEX 2441; experiment: Heterotrophic growth with glucose, 24 well plate, dark or light; conditions: for DCW g/L / DCW mg/ml.: 4 weeks
Method: (§1) Modified BG-11 (17.65 mM NaNO3, 0.23 mM K2PO4, 0.3 mM MgSO4.7H2O, 0.25 mM CaCl2.2H2O, 0.189 mM Na2CO3, 0.03 mM citric acid monohydrate, 0.023 mM ferric ammonium citrate, 0.046 mM H3BO3, 9.15 μM MnCl2.4H2O, 0.77 μM ZnSO4.7H2O, 0.32 μM CuSO4.5H2O, 0.21 μM CoCl2.6H2O, 1.62 μM NaMoO4.2H2O, 2.69 μM Na2EDTA, 9 mg/l Tricine, 1.99 μM Thiamine-HCl, 0.006 μM Cyanocobalamine, 0.044 μM Calcium Pantothenate, 0.29 μM p-aminobenzoic acid, soil water).

[3] = test system: Botryococcus braunii UTEX 572; experiment: as above; conditions: for DCW g/L / DCW mg/ml.: 4 weeks
Method: as §1

[4] = test system: Botryococcus braunii N-836; experiment: Complex nitrogen sources on heterotrophic growth with glucose; conditions: N-836, 1% glucose in BG11, dark, 4 weeks
Method: (§2) The following experiment was done with UTEX 572, UTEX 2441, and N-836 in 20 ml of BG11 plus:
(§3) 1% glucose+2 g/L hydrolyzed casein

[5] = test system: Botryococcus braunii UTEX 2441; experiment: as above; conditions: UTEX 2441, 1% glucose in BG11, dark, 4 weeks
Method: as §2, §3

[6] = test system: Botryococcus braunii UTEX 572; experiment: as above; conditions: UTEX 572, 1% glucose in BG11, dark, 4 weeks
Method: as §2, §3

[7] = test system: Botryococcus braunii N-836; experiment: Different fixed carbon sources on heterotrophic growth, visual score; parameters: key to heterotrophic growth score, 0.1% / heterotrophic growth score, 0.5% / heterotrophic growth score, 1%: Growth was scored with +'s by visual examination of the cultures; ++: Growth was scored with +'s by visual examination of the cultures; +++: Growth was scored with +'s by visual examination of the cultures; ++++: Growth was scored with +'s by visual examination of the cultures; +++++: Growth was scored with +'s by visual examination of the cultures
Method: (§4) All carbon sources were tested at three different concentrations; 0.1%, 0.5% and 1%. Cultures were grown in 24 well plates for 4 weeks in the dark in 1 ml BG11 plus fixed carbon. Control cultures were grown in BG-11 media under phototrophic conditions without a fixed carbon source. Growth was scored with +'s by visual examination of the cultures (see Table 7). UTEX 572 grew best in glucose, however there was also growth on mannose, galactose and fructose. UTEX 2441 preferred mannose in the dark but there was some growth in galactose, fructose and glycerol.

[8] = test system: Botryococcus braunii UTEX 2441; experiment: as above; parameters: key to heterotrophic growth score, 0.1% / heterotrophic growth score, 0.5% / heterotrophic growth score, 1%: Growth was scored with +'s by visual examination of the cultures; ++: Growth was scored with +'s by visual examination of the cultures; +++: Growth was scored with +'s by visual examination of the cultures; ++++: Growth was scored with +'s by visual examination of the cultures; +++++: Growth was scored with +'s by visual examination of the cultures; conditions: 4 weeks
Method: as §4

[9] = test system: Botryococcus braunii UTEX 572; experiment: as above; parameters: key to heterotrophic growth score, 0.1% / heterotrophic growth score, 0.5% / heterotrophic growth score, 1%: Growth was scored with +'s by visual examination of the cultures; ++: Growth was scored with +'s by visual examination of the cultures; +++: Growth was scored with +'s by visual examination of the cultures; ++++: Growth was scored with +'s by visual examination of the cultures; +++++: Growth was scored with +'s by visual examination of the cultures
Method: as §4

[10] = test system: Botryococcus braunii (UTEX 572); experiment: High surface to volume heterotrophic cultivation; conditions: UTEX 572, 3% glucose, dark, stepwise scale-up
Method: In order to develop a reproducible, scalable process for the heterotrophic cultivation of B. braunii, a low-volume, slow-mixing heterotrophic procedure was developed. Botryococcus braunii (UTEX 572) cultures were transferred from solid media plates into 6-well plates using B-11 media supplemented with 3% glucose and was grown for one week at room temperature in the dark. The cultures were then transferred into 50 mL of fresh media in a 150 mL T-flask and agitated at 40 rpm on a plate shaker for one week at room temperature in the dark. The cultures were then transferred into 100 mL of fresh media in a 500 mL T-flask and agitated at 30 rpm with a two-inch throw for one week at room temperature in the dark. Finally, the cultures were transferred into 350 mL of fresh media in a Fernbach flask and agitated at 30 rpm with a two-inch throw for one week at room temperature in the dark. In one set of cultures, the cells were transferred into 500 mL of fresh media in a Fernbach flask (instead of 350 mL). Dry cell weights were collected for all cultures and compared. Cultures that were grown in a final volume of 350 mL of media reached a DCW of about 9 grams per liter.

OC[C@H]1O[C@H](O[C@H]2[C@H](O)[C@@H](O)C(O)O[C@@H]2CO)[C@H](O)[C@@H](O)[C@@H]1O (mixture of isomers) [maltose]
growth by visual observation as compared to glucose only control [1]: better growth

O=C[C@H](O)[C@@H](O)[C@H](O)[C@H](O)CO [glucose]
DCW g/L ([2]; UTEX 2441, 0.1% glucose, dark): 0.3 g/L
DCW mg/ml. ([2]; UTEX 2441, 0.1% glucose, dark): 0.3 mg/mL
DCW g/L ([2]; UTEX 2441, 0.2% glucose, dark): 0.3 g/L
DCW mg/ml. ([2]; UTEX 2441, 0.2% glucose, dark): 0.3 mg/mL
DCW g/L ([2]; UTEX 2441, 0.5% glucose, dark): 0.1 g/L
DCW mg/ml. ([2]; UTEX 2441, 0.5% glucose, dark): 0.1 mg/mL
growth in the dark at 1% glucose compared with 0.1 and 0.5% ([2]; UTEX 2441, 1% glucose, dark): best growth
DCW g/L ([2]; UTEX 2441, 1.0% glucose, dark): 0.7 g/L
DCW mg/ml. ([2]; UTEX 2441, 1.0% glucose, dark): 0.7 mg/mL
growth with glucose in the dark ([2]; UTEX 2441, BG11 plus glucose, dark): clearly grew
growth with glucose in the light ([2]; UTEX 2441, BG11 plus glucose, light): no growth
DCW g/L ([3]; UTEX 572, 0.1% glucose, dark): 0.2 g/L
DCW mg/ml. ([3]; UTEX 572, 0.1% glucose, dark): 0.2 mg/mL
DCW g/L ([3]; UTEX 572, 0.2% glucose, dark): 0.2 g/L
DCW mg/ml. ([3]; UTEX 572, 0.2% glucose, dark): 0.2 mg/mL
DCW g/L ([3]; UTEX 572, 0.5% glucose, dark): 0.4 g/L
DCW mg/ml. ([3]; UTEX 572, 0.5% glucose, dark): 0.4 mg/mL
growth in the dark at 1% glucose compared with 0.1 and 0.5% ([3]; UTEX 572, 1% glucose, dark): best growth
growth with glucose in the dark ([3]; UTEX 572, BG11 plus glucose, dark): clearly grew
growth with glucose in the light ([3]; UTEX 572, BG11 plus glucose, light): no growth
DCW [4]: 0.267 g/L
DCW mg/3 m1. [4]: 0.8 mg/3 m1
DCW [5]: 0.067 g/L
DCW mg/3 m1. [5]: 0.2 mg/3 m1
DCW [6]: 0.20 g/L and 0.33 g/L
DCW mg/3 m1. [6]: 0.6 mg/3 m1 and 1.0 mg/3 m1
heterotrophic growth score, 0.1% ([7]; N-836, 0.1% carbon source in 1 ml BG11, dark, 4 weeks): ++
heterotrophic growth score, 0.5% ([7]; N-836, 0.5% carbon source in 1 ml BG11, dark, 4 weeks): ++
heterotrophic growth score, 1% ([7]; N-836, 1% carbon source in 1 ml BG11, dark, 4 weeks): +++
heterotrophic growth on carbon source, in words ([7]; N-836, dark): heterotrophic growth
heterotrophic growth score, 0.1% ([8]; UTEX 2441, 0.1% carbon source in 1 ml BG11, dark): ++
heterotrophic growth score, 0.5% ([8]; UTEX 2441, 0.5% carbon source in 1 ml BG11, dark): ++
heterotrophic growth score, 1% ([8]; UTEX 2441, 1% carbon source in 1 ml BG11, dark): ++++
heterotrophic growth score, 0.1% ([9]; UTEX 572, 0.1% carbon source in 1 ml BG11, dark, 4 weeks): +++
heterotrophic growth score, 0.5% ([9]; UTEX 572, 0.5% carbon source in 1 ml BG11, dark, 4 weeks): ++++
heterotrophic growth score, 1% ([9]; UTEX 572, 1% carbon source in 1 ml BG11, dark, 4 weeks): +++++
heterotrophic growth on carbon source, in words ([9]; UTEX 572, dark): grew best
DCW ([10]; final volume 350 mL): about 9 grams per liter
DCW ([10]; final volume 500 mL): about 3 grams per liter
